This passage reports IC50 and inhibition results from patent US20020082254A1, “Compounds for treating disorders where a decreased level of plasma FFA is desired” (priority 2000, published 2002).

Experiment [1] has as its target T1, Hormone-sensitive lipase (HSL) (Homo sapiens, UniProt Q05469).
T1 sequence (Q05469 1-1076): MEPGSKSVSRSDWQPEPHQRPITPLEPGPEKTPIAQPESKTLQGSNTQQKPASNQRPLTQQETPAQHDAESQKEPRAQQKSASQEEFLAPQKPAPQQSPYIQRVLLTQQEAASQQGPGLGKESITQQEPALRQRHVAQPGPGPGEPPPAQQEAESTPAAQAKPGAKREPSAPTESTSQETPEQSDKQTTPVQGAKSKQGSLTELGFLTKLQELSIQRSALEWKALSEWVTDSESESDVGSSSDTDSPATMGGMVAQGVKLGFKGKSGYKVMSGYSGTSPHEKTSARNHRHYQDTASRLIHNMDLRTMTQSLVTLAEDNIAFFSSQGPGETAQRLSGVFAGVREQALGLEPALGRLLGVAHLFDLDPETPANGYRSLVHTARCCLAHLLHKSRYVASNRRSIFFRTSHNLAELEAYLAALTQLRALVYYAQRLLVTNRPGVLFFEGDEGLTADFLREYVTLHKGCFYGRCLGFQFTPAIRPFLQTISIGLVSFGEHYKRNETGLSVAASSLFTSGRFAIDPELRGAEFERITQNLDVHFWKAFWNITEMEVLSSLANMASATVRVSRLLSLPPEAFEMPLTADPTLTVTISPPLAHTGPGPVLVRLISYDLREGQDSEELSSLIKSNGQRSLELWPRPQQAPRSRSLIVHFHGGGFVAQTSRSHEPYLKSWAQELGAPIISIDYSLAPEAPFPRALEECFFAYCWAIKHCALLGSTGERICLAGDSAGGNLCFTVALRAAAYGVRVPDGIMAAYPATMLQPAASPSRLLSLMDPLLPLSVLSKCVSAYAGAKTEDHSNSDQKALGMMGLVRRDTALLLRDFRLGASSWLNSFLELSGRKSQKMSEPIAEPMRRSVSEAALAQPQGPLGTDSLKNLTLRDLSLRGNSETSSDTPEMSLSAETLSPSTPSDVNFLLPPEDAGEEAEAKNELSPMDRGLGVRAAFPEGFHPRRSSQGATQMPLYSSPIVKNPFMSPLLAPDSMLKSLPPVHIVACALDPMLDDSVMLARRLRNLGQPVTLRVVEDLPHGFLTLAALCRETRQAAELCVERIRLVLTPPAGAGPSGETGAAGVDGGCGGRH
Kind of experiment: Hormone-sensitive lipase (HSL) inhibition assay, 3H-labeled triolein or MOME substrate. In kind it is biochemical. Particulars: read-out: HSL inhibition (IC50). The source says: Hormone-sensitive lipase (HSL) [classified as a triacylglycerol lipase, EC 3.1.1.3, in accordance with the Recommendations of the Nomenclature Committee of the International Union of Biochemistry and Molecular Biology (available on the World Wide Web at the following address: http://www.chem.qmw.ac.uk/iubmb/enzyme/)]
Materials. The Hormone-sensitive lipase employed was provided by Dr. Cecilia Holm of Lund University, Sweden, or produced and purified by Novo Nordisk (NN) using the reagents and protocols employed by Dr. Holm. The substrates used are: ^3H-labeled triolein (TO) from Amersham, Buckinghamshire, U.K. cat No. TRA191; 5-20 Ci/mmol dissolved in toluene, triolein (Sigma, Cat. No. T-1740) and mono-oleoyl-2-O-mono-oleylglycerol (MOME) synthesized at (NN) using the protocols provided by Dr. Cecilia Holm, Lund University, Sweden. Phosphatidyl choline (PC) and phosphatidyl inositol (PI) are from Sigma (St Luis Mo., cat. Nos. P-3556 and P-5954, respectively). All other reagents are of commercial grade and obtained from various commercial sources.
Methods. The preparation of the substrates is as follows:
TO: 30 μl PC:PI (20 mg/ml solution of PC:PI 3:1 prepared in chloroform)+128 μl cold TO+15 μl ^3H-TO
MOME: 30 μl PC:PI+100 μl cold MOME+200 μl ^3H-MOME
They are then evaporated under a gentle stream of N2 followed by 20-30 minutes in a Speedvac™ apparatus to ensure the absence of residual solvent.
The samples are prepared as follows:
Samples/controls: 78 μl PED-BSA+20 μl inhibitor (various concentrations)+2 μl HSL (undiluted 0.12 mg/ml). If no inhibitors are being tested, the reaction contains 98 μl PED-BSA+2 μl HSL.
The samples are put on ice and then sonicated as follows:
With TO as substrate, add 2 ml potassium buffer (0.1M potassium phosphate, pH 7) and then sonicate twice for 1 minute, with a 1-minute interval between cycles. Add an additional 1 ml potassium buffer and sonicate 4 times for 30 seconds, with a 30 second interval in between cycles. To finish, add 1 ml BSA 20%-in potassium buffer, mix by inversion and store on ice until use.
With MOME as substrate: add 2 ml potassium buffer and then sonicate twice for 1 minute, with a 1 minute interval between cycles. Add 1.6 ml potassium buffer and sonicate 4 times for 30 seconds, with a 30-second interval between cycles. To finish, add 0.4 ml BSA 20%-buffer, mix by inversion and store on ice until use.
The enzyme reaction is run at 37° C. The substrate mix is added to the various reactions at 10 second intervals, incubated for 30 minutes in a water bath and then stopped with 3.25 ml of a solution containing CH3OH:CHCl3:heptane (10:9:7). After the addition of 1.05 ml potassium buffer pH10.5, the sample is vortexed thoroughly and centrifuged for 20 min at 2000 r.p.m. One ml of the upper phase is added to 10 ml scintillation fluid, and mixed thoroughly by shaking.
The samples are then counted, 5 min per vial, in a scintillation counter.

Another experiment has as its target T2, Hepatic lipase (HL) (Homo sapiens, UniProt P11150).
T2 sequence (P11150 23-499): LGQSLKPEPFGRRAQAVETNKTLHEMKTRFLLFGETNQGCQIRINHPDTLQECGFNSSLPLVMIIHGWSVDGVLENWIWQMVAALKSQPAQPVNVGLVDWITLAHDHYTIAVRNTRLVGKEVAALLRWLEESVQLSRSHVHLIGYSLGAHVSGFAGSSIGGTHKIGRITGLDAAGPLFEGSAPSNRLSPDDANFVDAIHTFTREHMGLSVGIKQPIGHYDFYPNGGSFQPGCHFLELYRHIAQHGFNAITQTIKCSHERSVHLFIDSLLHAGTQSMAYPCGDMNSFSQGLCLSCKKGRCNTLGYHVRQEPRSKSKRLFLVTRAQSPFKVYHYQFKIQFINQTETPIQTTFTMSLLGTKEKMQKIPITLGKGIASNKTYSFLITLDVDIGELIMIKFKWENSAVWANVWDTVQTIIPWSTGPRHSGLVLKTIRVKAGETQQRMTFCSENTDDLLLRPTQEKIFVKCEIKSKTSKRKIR
Description: Hepatic lipase (HL) inhibition assay, 3H-triolein substrate. The following applies: read-out: HL inhibition (% inh. at 50 μM). Type of experiment: biochemical. The source says: Hepatic Lipase (HL) [classified as a triacylglycerol lipase, EC 3.1.1.3, in accordance with the Recommendations of the Nomenclature Committee of the International Union of Biochemistry and Molecular Biology (available on the World Wide Web at the following address: http://www.chem.qmw.ac.uk/iubmb/enzyme/)]
Materials. The hepatic lipase employed was obtained from Dr. Howard Wong of the University of California at Los Angeles (UCLA), USA, or produced and purified using the methods and a cell line provided by Dr. Wong's laboratory. ^3H-triolein (TO) from Amersham, Buckinghamshire, U.K., cat No. TRA191; 5-20 Ci/mmol dissolved in toluene and triolein (Sigma, Cat. No. T-1740). All other reagents are of commercial grade and obtained from various commercial sources.
50 μl TO in a 20 ml scintillation vial and evaporate with N2 for 5 minutes.
Add 1 ml 10% gum arabic and 1.25 ml Tris-Cl pH 8.5 and 2 ml MilliQ water.
Sonicate, on ice, 16 times for 30 seconds with a 30-second interval between cycles.
Add 2.5 ml of 5 M NaCl+2.5 ml BSA (10% in Milli Q, pH 8)+3.25 ml Milli Q
Total volume: 12.5 ml (for 80 reactions )
If an inhibitor is going to be used, it should be incubated with the 50 μl HL (of a 125 mU/ml solution) for 70 minutes at 25° C. A 5 μl aliquot from the incubated 50 μl is added to 150 μl assay mix+45 μl Milli Q™ water and mixed.
Incubate for exactly 30 minutes at 25° C.
Stop the reaction with Methanol:chloroform:heptane 10:9:7: 3.25 ml/vial, mix; then add 1.05 ml buffer (100 mM boric acid, 100 mM potassium carbonate pH 10.5), mix for 10 seconds per vial.
Centrifuge for 20 min/2000 rpm
Take 1 ml of the upper phase+10 ml scintillation fluid and mix by shaking by hand.
Scintillation count for 5 minutes per vial.

On to `O=C(NN1CCc2ccccc2C1)Oc1ccccc1` [Example 1, (3,4-Dihydro-1H-isoquinolin-2-yl)-carbamic Acid Phenyl Ester], for which the IC50 (commonly the concentration needed to halve the response being measured) in experiment [1] amounted to 200 nM. Moreover, the inhibition (commonly the change of the read-out against control, counted positive when it falls) at 50 µM at Hepatic lipase (HL) came out at 5%.
